How the values were obtained:
rape = assay: Test B pre/postemergence rape; type: in vivo, Brassica napus; conditions: for Rape plant response rating: scale of 0 to 10 where 0 is no effect and 10 is complete control
Summary of the method: (§1)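 Response is a visual 0-to-10 score relative to untreated plants, where 0 means no effect and 10 means complete control, taken twelve to sixteen days after application. Treatments went onto soil at planting and onto foliage of 1- to 4-leaf plants, using a surfactant-containing non-phytotoxic solvent.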

cocklebur = assay: Test B pre/postemergence cocklebur; type: in vivo, Xanthium strumarium; conditions: for Cocklebur plant response rating: scale of 0 to 10 where 0 is no effect and 10 is complete control
Summary of the method: as §1

blackgrass = assay: Test B pre/postemergence blackgrass; type: in vivo, Alopecurus myosuroides; conditions: for Blackgrass plant response rating: scale of 0 to 10 where 0 is no effect and 10 is complete control
Summary of the method: as §1

rice = assay: Test B flood test rice; type: in vivo, Oryza sativa
Summary of the method: (§2)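 Each value is a visual injury score relative to controls, with 10 meaning complete control and 0 no effect. Evaluation took place twelve to sixteen days after the 2-leaf-stage plants were treated and kept in the greenhouse.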

giant foxtail = assay: Test B pre/postemergence giant foxtail; type: in vivo, Setaria faberii; conditions: for Giant foxtail plant response rating: scale of 0 to 10 where 0 is no effect and 10 is complete control
Summary of the method: as §1

morningglory = assay: Test B pre/postemergence morningglory; type: in vivo, Ipomoea hederacea; conditions: for Morningglory plant response rating: scale of 0 to 10 where 0 is no effect and 10 is complete control
Summary of the method: as §1

purple nutsedge = assay: Test B pre/postemergence purple nutsedge; type: in vivo, Cyperus rotundus; conditions: for Nutsedge plant response rating: scale of 0 to 10 where 0 is no effect and 10 is complete control
Summary of the method: as §1

velvetleaf = assay: Test B pre/postemergence velvetleaf; type: in vivo, Abutilon theophrasti; conditions: for Velvetleaf plant response rating: scale of 0 to 10 where 0 is no effect and 10 is complete control
Summary of the method: as §1

smallflower flatsedge = assay: Test B flood test smallflower flatsedge; type: in vivo, Cyperus difformis
Summary of the method: as §2

pigweed = assay: Test B pre/postemergence pigweed; type: in vivo, Amaranthus retroflexus; conditions: for Redroot pigweed plant response rating: scale of 0 to 10 where 0 is no effect and 10 is complete control
Summary of the method: as §1

sugar beet = assay: Test B pre/postemergence sugar beet; type: in vivo, Beta vulgaris; conditions: for Sugarbeets plant response rating: scale of 0 to 10 where 0 is no effect and 10 is complete control
Summary of the method: as §1

corn = assay: Test B pre/postemergence corn; type: in vivo, Zea mays; conditions: for Corn plant response rating: scale of 0 to 10 where 0 is no effect and 10 is complete control
Summary of the method: as §1

duck salad = assay: Test B flood test duck salad; type: in vivo, Heteranthera limosa
Summary of the method: as §2

crabgrass = assay: Test B pre/postemergence crabgrass; type: in vivo, Digitaria sanguinalis; conditions: for Crabgrass plant response rating: scale of 0 to 10 where 0 is no effect and 10 is complete control
Summary of the method: as §1

wheat = assay: Test B pre/postemergence wheat; type: in vivo, Triticum aestivum; conditions: for Wheat plant response rating: scale of 0 to 10 where 0 is no effect and 10 is complete control
Summary of the method: as §1

soybean = assay: Test B pre/postemergence soybean; type: in vivo, Glycine max; conditions: for Soybean plant response rating: scale of 0 to 10 where 0 is no effect and 10 is complete control
Summary of the method: as §1

[1] = Postemergence, Rate 125 g/ha, scale 0 to 10, 0 is no effect, 10 is complete control
[2] = Postemergence, Rate 250 g/ha, scale 0 to 10, 0 is no effect, 10 is complete control
[3] = Preemergence, Rate 62 g/ha, scale 0 to 10 (0 no effect, 10 complete control)
[4] = Rate 500 g/ha, Postemergence, scale 0 to 10, 0 no effect, 10 complete control
[5] = Rate 62 g/ha, flood test species, Pre-emergence, visual evaluation after twelve to sixteen days
[6] = Rate 125 g/ha, under heading Pre-emergence, flood test species, visual evaluation after twelve to sixteen days
[7] = Rate 250 g/ha, Pre-emergence, flood-test species, scale 0 to 10, 0 is no effect, 10 is complete control
[8] = Rate 500 g/ha, Pre-emergence, flood test species, scale 0 to 10 (0 no effect, 10 complete control)

Compound: CCOc1nc(C(F)(F)F)c(Cn2c(=O)on(C(=O)N(c3ccccc3)C(C)C)c2=O)s1 [Compound 379]
- Plant response rating, Rape (rape; [1]): 0
- Plant response rating, Rape (rape; [2]): 0
- Plant response rating, Rape (rape; [3]): 0
- Rape plant response rating (0 to 10 scale) (rape; Preemergence, Rate 125 g/ha): 0
- Rape plant response rating (rape; Preemergence, Rate 250 g/ha): 0
- Rape plant response rating (rape; Preemergence, Rate 500 g/ha): 0
- Rape plant response rating (rape; Rate 62 g/ha, Postemergence): 0
- Plant response rating, Rape (rape; [4]): 0
- Plant response rating, Cocklebur (cocklebur; [1]): 0
- Plant response rating, Cocklebur (cocklebur; [2]): 0
- Plant response rating, Cocklebur (cocklebur; [3]): 0
- Cocklebur plant response rating (0 to 10 scale) (cocklebur; Preemergence, Rate 125 g/ha): 0
- Cocklebur plant response rating (cocklebur; Preemergence, Rate 250 g/ha): 0
- Cocklebur plant response rating (cocklebur; Preemergence, Rate 500 g/ha): 0
- Cocklebur plant response rating (cocklebur; Rate 62 g/ha, Postemergence): 0
- Plant response rating, Cocklebur (cocklebur; [4]): 0
- Plant response rating, Blackgrass (blackgrass; [1]): 0
- Plant response rating, Blackgrass (blackgrass; [2]): 0
- Plant response rating, Blackgrass (blackgrass; [3]): 0
- Blackgrass plant response rating (0 to 10 scale) (blackgrass; Preemergence, Rate 125 g/ha): 0
- Blackgrass plant response rating (blackgrass; Preemergence, Rate 250 g/ha): 0
- Blackgrass plant response rating (blackgrass; Preemergence, Rate 500 g/ha): 0
- Blackgrass plant response rating (blackgrass; Rate 62 g/ha, Postemergence): 0
- Plant response rating, Blackgrass (blackgrass; [4]): 0
- Plant response rating, Rice (0 to 10 scale, 0 is no effect, 10 is complete control) (rice; [5]): 0
- Rice plant response rating (0 to 10 scale, 0 is no effect, 10 is complete control) (rice; [6]): 0
- Rice plant response rating (rice; [7]): 0
- Rice plant response rating (rice; [8]): 0
- Plant response rating, Giant foxtail (giant foxtail; [1]): 0
- Plant response rating, Giant foxtail (giant foxtail; [2]): 2
- Plant response rating, Giant foxtail (giant foxtail; [3]): 0
- Giant foxtail plant response rating (0 to 10 scale) (giant foxtail; Preemergence, Rate 125 g/ha): 1
- Giant foxtail plant response rating (giant foxtail; Preemergence, Rate 250 g/ha): 6
- Giant foxtail plant response rating (giant foxtail; Preemergence, Rate 500 g/ha): 9
- Giant foxtail plant response rating (giant foxtail; Rate 62 g/ha, Postemergence): 0
- Plant response rating, Giant foxtail (giant foxtail; [4]): 7
- Plant response rating, Morningglory (morningglory; [1]): 7
- Plant response rating, Morningglory (morningglory; [2]): 8
- Plant response rating, Morningglory (morningglory; [3]): 0
- Morningglory plant response rating (0 to 10 scale) (morningglory; Preemergence, Rate 125 g/ha): 0
- Morningglory plant response rating (morningglory; Preemergence, Rate 250 g/ha): 0
- Morningglory plant response rating (morningglory; Preemergence, Rate 500 g/ha): 0
- Morningglory plant response rating (morningglory; Rate 62 g/ha, Postemergence): 5
- Plant response rating, Morningglory (morningglory; [4]): 10
- Plant response rating, Nutsedge (purple nutsedge; [1]): 0
- Plant response rating, Nutsedge (purple nutsedge; [2]): 0
- Plant response rating, Nutsedge (purple nutsedge; [3]): 0
- Nutsedge plant response rating (0 to 10 scale) (purple nutsedge; Preemergence, Rate 125 g/ha): 0
- Nutsedge plant response rating (purple nutsedge; Preemergence, Rate 250 g/ha): 0
- Nutsedge plant response rating (purple nutsedge; Preemergence, Rate 500 g/ha): 0
- Nutsedge plant response rating (purple nutsedge; Rate 62 g/ha, Postemergence): 0
- Plant response rating, Nutsedge (purple nutsedge; [4]): 0
- Plant response rating, Velvetleaf (velvetleaf; [1]): 0
- Plant response rating, Velvetleaf (velvetleaf; [2]): 0
- Plant response rating, Velvetleaf (velvetleaf; [3]): 0
- Velvetleaf plant response rating (0 to 10 scale) (velvetleaf; Preemergence, Rate 125 g/ha): 0
- Velvetleaf plant response rating (velvetleaf; Preemergence, Rate 250 g/ha): 0
- Velvetleaf plant response rating (velvetleaf; Preemergence, Rate 500 g/ha): 0
- Velvetleaf plant response rating (velvetleaf; Rate 62 g/ha, Postemergence): 0
- Plant response rating, Velvetleaf (velvetleaf; [4]): 0
- Plant response rating, S. Flatsedge (0 to 10 scale, 0 is no effect, 10 is complete control) (smallflower flatsedge; [5]): 0
- S. Flatsedge plant response rating (0 to 10 scale, 0 is no effect, 10 is complete control) (smallflower flatsedge; [6]): 0
- S. Flatsedge plant response rating (smallflower flatsedge; [7]): 0
- S. Flatsedge plant response rating (smallflower flatsedge; [8]): 0
- Plant response rating, Redroot pigweed (pigweed; [1]): 0
- Plant response rating, Redroot pigweed (pigweed; [2]): 1
- Plant response rating, Redroot pigweed (pigweed; [3]): 0
- Redroot pigweed plant response rating (0 to 10 scale) (pigweed; Preemergence, Rate 125 g/ha): 0
- Redroot pigweed plant response rating (pigweed; Preemergence, Rate 250 g/ha): 0
- Redroot pigweed plant response rating (pigweed; Preemergence, Rate 500 g/ha): 0
- Redroot pigweed plant response rating (pigweed; Rate 62 g/ha, Postemergence): 0
- Plant response rating, Redroot pigweed (pigweed; [4]): 1
- Plant response rating, Sugarbeets (sugar beet; [1]): 0
- Plant response rating, Sugarbeets (sugar beet; [2]): 0
- Plant response rating, Sugarbeets (sugar beet; [3]): 0
- Sugarbeets plant response rating (0 to 10 scale) (sugar beet; Preemergence, Rate 125 g/ha): 0
- Sugarbeets plant response rating (sugar beet; Preemergence, Rate 250 g/ha): 0
- Sugarbeets plant response rating (sugar beet; Preemergence, Rate 500 g/ha): 0
- Sugarbeets plant response rating (sugar beet; Rate 62 g/ha, Postemergence): 0
- Plant response rating, Sugarbeets (sugar beet; [4]): 0
- Plant response rating, Corn (corn; [1]): 0
- Plant response rating, Corn (corn; [2]): 0
- Plant response rating, Corn (corn; [3]): 0
- Corn plant response rating (0 to 10 scale) (corn; Preemergence, Rate 125 g/ha): 0
- Corn plant response rating (corn; Preemergence, Rate 250 g/ha): 0
- Corn plant response rating (corn; Preemergence, Rate 500 g/ha): 0
- Corn plant response rating (corn; Rate 62 g/ha, Postemergence): 0
- Plant response rating, Corn (corn; [4]): 0
- Plant response rating, Ducksalad (0 to 10 scale, 0 is no effect, 10 is complete control) (duck salad; [5]): 0
- Ducksalad plant response rating (0 to 10 scale, 0 is no effect, 10 is complete control) (duck salad; [6]): 0
- Ducksalad plant response rating (duck salad; [7]): 0
- Ducksalad plant response rating (duck salad; [8]): 0
- Plant response rating, Crabgrass (crabgrass; [1]): 0
- Plant response rating, Crabgrass (crabgrass; [2]): 0
- Plant response rating, Crabgrass (crabgrass; [3]): 0
- Crabgrass plant response rating (0 to 10 scale) (crabgrass; Preemergence, Rate 125 g/ha): 0
- Crabgrass plant response rating (crabgrass; Preemergence, Rate 250 g/ha): 7
- Crabgrass plant response rating (crabgrass; Preemergence, Rate 500 g/ha): 8
- Crabgrass plant response rating (crabgrass; Rate 62 g/ha, Postemergence): 0
- Plant response rating, Crabgrass (crabgrass; [4]): 0
- Plant response rating, Wheat (wheat; [1]): 0
- Plant response rating, Wheat (wheat; [2]): 0
- Plant response rating, Wheat (wheat; [3]): 0
- Wheat plant response rating (0 to 10 scale) (wheat; Preemergence, Rate 125 g/ha): 0
- Wheat plant response rating (wheat; Preemergence, Rate 250 g/ha): 0
- Wheat plant response rating (wheat; Preemergence, Rate 500 g/ha): 0
- Wheat plant response rating (wheat; Rate 62 g/ha, Postemergence): 0
- Plant response rating, Wheat (wheat; [4]): 0
- Plant response rating, Soybean (soybean; [1]): 1
- Plant response rating, Soybean (soybean; [2]): 1
- Plant response rating, Soybean (soybean; [3]): 0
- Soybean plant response rating (0 to 10 scale) (soybean; Preemergence, Rate 125 g/ha): 0
- Soybean plant response rating (soybean; Preemergence, Rate 250 g/ha): 0
- Soybean plant response rating (soybean; Preemergence, Rate 500 g/ha): 0
- Soybean plant response rating (soybean; Rate 62 g/ha, Postemergence): 1
- Plant response rating, Soybean (soybean; [4]): 2
